Like-named read-outs stand apart in the source and are kept apart here.
Tests used:
Assay type in all cases: biochemical
[1] = target: T1, plastidic AtPGI (PGI1) (Arabidopsis thaliana, UniProt Q8H103); experiment: G6PDH-coupled spectrophotometric assay, Hill function fit; settings: F6P to G6P direction; 50 mM bicine pH 7.8, 4.8 mM DTT, 0.6 mM NADP+; read-out: F6P G6P / Plastidic PGI
T1 construct: N-terminal His-tag, plastid targeting peptide removed, pET11a, E. coli BL21, Ni-NTA purified
T1 sequence (Q8H103 49-613): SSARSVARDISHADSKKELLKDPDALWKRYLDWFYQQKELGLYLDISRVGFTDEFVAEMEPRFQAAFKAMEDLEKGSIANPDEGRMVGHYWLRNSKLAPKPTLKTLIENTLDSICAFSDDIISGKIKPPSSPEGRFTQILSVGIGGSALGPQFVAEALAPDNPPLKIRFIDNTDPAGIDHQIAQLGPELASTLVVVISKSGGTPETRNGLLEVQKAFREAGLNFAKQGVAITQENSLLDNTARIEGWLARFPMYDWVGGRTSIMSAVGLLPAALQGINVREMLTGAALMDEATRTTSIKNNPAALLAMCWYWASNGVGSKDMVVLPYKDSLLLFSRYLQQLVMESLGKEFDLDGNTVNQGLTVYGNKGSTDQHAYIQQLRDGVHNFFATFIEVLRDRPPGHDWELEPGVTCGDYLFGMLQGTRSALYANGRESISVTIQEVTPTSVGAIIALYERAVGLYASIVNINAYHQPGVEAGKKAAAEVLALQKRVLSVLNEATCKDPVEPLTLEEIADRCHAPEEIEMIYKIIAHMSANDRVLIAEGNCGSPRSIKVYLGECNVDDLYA
Source text: G6PDH-coupled spectrophotometric assay, Hill function fit on plastidic AtPGI (PGI1)

[2] = target: T2, cytosolic AtPGI (PGI2) (Arabidopsis thaliana, UniProt P34795); experiment: as above; settings: F6P to G6P direction; 50 mM bicine pH 7.8, 4.8 mM DTT, 0.6 mM NADP+; table and text disagree, table columns possibly interchanged; read-out: F6P G6P / Cytosolic PGI
T2 construct: gene PGIC; N-terminal His-tag, pET11a, E. coli BL21, Ni-NTA purified
T2 sequence (P34795 1-560): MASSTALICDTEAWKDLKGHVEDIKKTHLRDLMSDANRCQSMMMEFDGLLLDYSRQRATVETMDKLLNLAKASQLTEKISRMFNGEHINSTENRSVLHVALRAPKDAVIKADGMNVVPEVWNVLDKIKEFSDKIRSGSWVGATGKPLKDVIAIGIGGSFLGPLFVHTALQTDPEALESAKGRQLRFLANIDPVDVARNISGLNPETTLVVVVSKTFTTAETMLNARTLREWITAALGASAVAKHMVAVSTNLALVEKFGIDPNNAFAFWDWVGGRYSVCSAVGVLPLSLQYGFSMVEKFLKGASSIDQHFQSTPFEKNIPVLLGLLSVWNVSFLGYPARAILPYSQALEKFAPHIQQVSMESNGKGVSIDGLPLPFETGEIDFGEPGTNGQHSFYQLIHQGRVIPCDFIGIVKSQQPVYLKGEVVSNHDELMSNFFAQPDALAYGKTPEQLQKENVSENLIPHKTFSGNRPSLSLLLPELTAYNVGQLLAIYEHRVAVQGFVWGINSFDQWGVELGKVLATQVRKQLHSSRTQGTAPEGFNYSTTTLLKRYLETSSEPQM
Source text: G6PDH-coupled spectrophotometric assay, Hill function fit on cytosolic AtPGI (PGI2)

[3] = target: T3, plastidic SoPGI (Spinacia oleracea, UniProt O82058); experiment: PGI assay on lysed isolated chloroplasts; settings: F6P to G6P direction; light-treated leaves (dark-treated also measured)
T3 construct: gene GPIP; native, lysed Percoll-isolated chloroplasts from market spinach leaves, light or dark treated
T3 sequence (O82058 51-618): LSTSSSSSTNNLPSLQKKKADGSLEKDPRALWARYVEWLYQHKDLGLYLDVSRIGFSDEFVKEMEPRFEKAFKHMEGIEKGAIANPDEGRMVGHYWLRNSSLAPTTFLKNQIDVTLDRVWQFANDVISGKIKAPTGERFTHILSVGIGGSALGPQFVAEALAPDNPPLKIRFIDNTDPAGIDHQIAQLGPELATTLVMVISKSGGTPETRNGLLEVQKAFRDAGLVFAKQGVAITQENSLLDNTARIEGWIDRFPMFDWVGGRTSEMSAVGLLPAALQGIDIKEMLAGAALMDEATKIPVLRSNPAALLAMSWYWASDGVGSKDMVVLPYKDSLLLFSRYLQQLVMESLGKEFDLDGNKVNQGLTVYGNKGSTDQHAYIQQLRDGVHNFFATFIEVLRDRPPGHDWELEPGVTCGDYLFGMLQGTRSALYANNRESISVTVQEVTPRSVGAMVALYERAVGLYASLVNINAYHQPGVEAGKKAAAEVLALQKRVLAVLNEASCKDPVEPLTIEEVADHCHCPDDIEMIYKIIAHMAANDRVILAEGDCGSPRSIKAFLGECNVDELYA

[4] = target: T2, cytosolic AtPGI (PGI2); experiment: G6PDH-coupled spectrophotometric assay, non-linear least squares fit; settings: F6P to G6P direction, F6P 0-0.98 mM, 50 mM bicine pH 7.8, 4.8 mM DTT, 0.6 mM NADP+, read-out: F6P G6P / Cytosolic PGI
Source text: G6PDH-coupled spectrophotometric assay, non-linear least squares fit on cytosolic AtPGI (PGI2)

[5] = target: T1, plastidic AtPGI (PGI1); experiment: as above; settings: F6P to G6P direction, F6P 0-0.98 mM, 50 mM bicine pH 7.8, 4.8 mM DTT, 0.6 mM NADP+, read-out: F6P G6P / Plastidic PGI
Source text: G6PDH-coupled spectrophotometric assay, non-linear least squares fit on plastidic AtPGI (PGI1)

[6] = target: T1, plastidic AtPGI (PGI1); experiment: phosphofructokinase-coupled LC-MS/MS assay of FBP, Hill function fit; settings: G6P to F6P direction; 50 mM Tris pH 7.8, 2.5 mM MgCl2, 1 mM ATP, 5 mM DTT; table and text ratio disagree, table columns possibly interchanged; read-out: G6P F6P / Plastidic PGI
Source text: phosphofructokinase-coupled LC-MS/MS assay of FBP, Hill function fit on plastidic AtPGI (PGI1)

[7] = target: T2, cytosolic AtPGI (PGI2); experiment: as above; settings: G6P to F6P direction; 50 mM Tris pH 7.8, 2.5 mM MgCl2, 1 mM ATP, 5 mM DTT; read-out: G6P F6P / Cytosolic PGI
Source text: phosphofructokinase-coupled LC-MS/MS assay of FBP, Hill function fit on cytosolic AtPGI (PGI2)

[8] = competitive with F6P except above 1.0 mM

O=P(O)(O)OC[C@H]1OC(O)(CO)[C@@H](O)[C@@H]1O (stereo partly drawn) [F6P, fructose 6-phosphate]
Km [1]: 73 ± 80 µM | Km [2]: 203 ± 12 µM | Km [3]: The Km of SoPGI for F6P did not change in the light or dark

O=C[C@H](O)[C@H](O)COP(=O)(O)O [E4P, erythrose 4-phosphate]
Ki [4]: 1.5 µM | Ki [5]: 2.3 µM

O=P(O)(O)OC[C@H]1OC(O)[C@H](O)[C@@H](O)[C@@H]1O (stereo partly drawn) [G6P, glucose 6-phosphate]
Km [6]: 164 ± 43 µM | Km [7]: 158 ± 85 µM

O=C(O)[C@H](O)[C@@H](O)[C@H](O)[C@H](O)COP(=O)(O)O [6PG, 6-phosphogluconate]
Ki [4, 8]: 106 µM | Ki [5, 8]: 31 µM

Reference: PMC7758399, “Phosphoglucoisomerase Is an Important Regulatory Enzyme in Partitioning Carbon out of the Calvin-Benson Cycle” (Frontiers in Plant Science, 2020)
